# Literature values in patent US20070154533A1, “Method of increasing testosterone and related steriod concentrations in women” (priority 2005, published 2007).
# Read-outs that look alike come from different tables or passages of the source.
# Legend:
# [1] = patch delivering 150 ug/day, HIV-infected women, over 12 weeks
# [2] = for Mean (±SD) serum free testosterone concentration: transdermal patch, 12 weeks, oophorectomized women on conjugated equine estrogens
# [3] = circulating testosterone
# [4] = target: T1, sex hormone binding globulin (Homo sapiens, UniProt P04278); details: in women
# T1 sequence (P04278 30-402): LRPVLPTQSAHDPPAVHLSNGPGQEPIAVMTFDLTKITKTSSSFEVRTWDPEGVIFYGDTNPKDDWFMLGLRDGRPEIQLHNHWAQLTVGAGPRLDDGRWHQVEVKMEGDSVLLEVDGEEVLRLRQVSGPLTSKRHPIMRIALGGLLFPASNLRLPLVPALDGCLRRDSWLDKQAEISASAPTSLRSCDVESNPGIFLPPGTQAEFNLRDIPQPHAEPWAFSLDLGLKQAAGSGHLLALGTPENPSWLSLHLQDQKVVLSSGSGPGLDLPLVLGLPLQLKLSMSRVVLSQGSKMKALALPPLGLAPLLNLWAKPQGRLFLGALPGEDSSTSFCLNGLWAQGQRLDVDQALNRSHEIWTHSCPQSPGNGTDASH
# [5] = target: albumin (Homo sapiens, UniProt P02768); details: in women
# Sequence of albumin (P02768 25-609): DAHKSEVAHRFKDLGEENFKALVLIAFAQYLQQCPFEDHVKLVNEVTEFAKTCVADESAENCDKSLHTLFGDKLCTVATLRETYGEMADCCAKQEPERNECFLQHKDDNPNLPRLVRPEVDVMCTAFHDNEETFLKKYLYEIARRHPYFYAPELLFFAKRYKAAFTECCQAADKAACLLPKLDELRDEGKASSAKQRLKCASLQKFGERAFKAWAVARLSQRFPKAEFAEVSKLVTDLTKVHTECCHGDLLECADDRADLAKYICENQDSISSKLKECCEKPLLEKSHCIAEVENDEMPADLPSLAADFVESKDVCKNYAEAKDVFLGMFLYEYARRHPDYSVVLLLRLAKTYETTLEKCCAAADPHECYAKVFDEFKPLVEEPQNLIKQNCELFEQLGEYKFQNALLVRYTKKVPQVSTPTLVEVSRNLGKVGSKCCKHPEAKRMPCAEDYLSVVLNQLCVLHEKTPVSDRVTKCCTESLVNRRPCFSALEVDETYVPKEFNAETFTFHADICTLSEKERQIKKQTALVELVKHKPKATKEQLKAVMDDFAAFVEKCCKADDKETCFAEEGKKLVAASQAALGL
structure (smiles),measurement,setting,value
"C[C@]12CC[C@H]3[C@@H](CCC4=CC(=O)CC[C@@]43C)[C@@H]1CC[C@@H]2O [Testosterone, testosterone]",Increase in body weight,[1],4%
same,Scores on the telephone-based diary,[2]; higher dose,did not increase significantly
same,"Psychological Well-Being Index positive-well-being, depressed-mood, and composite scores",[2]; higher dose vs placebo,improved at the higher dose
same,"Percentages of women who had sexual fantasies, masturbated, or engaged in sexual intercourse at least once a week","[2]; higher dose, vs base line",increased two to three times from base line
same,Brief Index of Sexual Functioning for Women scores,"[2]; higher testosterone dose (300 μg per day), P=0.03 vs placebo",further increases in scores for frequency of sexual activity and pleasure-orgasm
same,Mean (±SD) serum free testosterone concentration,[2]; 160 μg of testosterone per day,3.9 ± 2.4 pg/mL
same,Mean (±SD) serum free testosterone concentration,[2]; 300 μg of testosterone per day,4.9 ± 4.8 pg/mL
same,Bound to protein in the blood,[3],98%
same,Binding to sex hormone binding globulin,[4],approximately 65%
same,Bound weakly to albumin,[5],33%
